Laboratory results taken from patent US7262280B1, “G-protein fusion receptors and constructs encoding same” (NPS Pharmaceuticals, Inc., priority 1998, dated 2007).

Key:
Assay type in all cases: cell-based
mGluR8//CaR*Gαqi5 = biological target: T1, mGluR8//CaR*Gαqi5 (Homo sapiens, UniProt O00222); assay: Calcium-activated chloride current in Xenopus oocytes injected with G-protein fusion receptor cRNA; conditions: 100 μM, Xenopus laevis oocytes, holding −60 mV, FIG. 15
T1 construct: ID; NO; 41; expressed in transfected cells; host or cells: Xenopus laevis oocytes injected with fusion receptor cRNA
T1 sequence (O00222 with tags, fused parts or gaps): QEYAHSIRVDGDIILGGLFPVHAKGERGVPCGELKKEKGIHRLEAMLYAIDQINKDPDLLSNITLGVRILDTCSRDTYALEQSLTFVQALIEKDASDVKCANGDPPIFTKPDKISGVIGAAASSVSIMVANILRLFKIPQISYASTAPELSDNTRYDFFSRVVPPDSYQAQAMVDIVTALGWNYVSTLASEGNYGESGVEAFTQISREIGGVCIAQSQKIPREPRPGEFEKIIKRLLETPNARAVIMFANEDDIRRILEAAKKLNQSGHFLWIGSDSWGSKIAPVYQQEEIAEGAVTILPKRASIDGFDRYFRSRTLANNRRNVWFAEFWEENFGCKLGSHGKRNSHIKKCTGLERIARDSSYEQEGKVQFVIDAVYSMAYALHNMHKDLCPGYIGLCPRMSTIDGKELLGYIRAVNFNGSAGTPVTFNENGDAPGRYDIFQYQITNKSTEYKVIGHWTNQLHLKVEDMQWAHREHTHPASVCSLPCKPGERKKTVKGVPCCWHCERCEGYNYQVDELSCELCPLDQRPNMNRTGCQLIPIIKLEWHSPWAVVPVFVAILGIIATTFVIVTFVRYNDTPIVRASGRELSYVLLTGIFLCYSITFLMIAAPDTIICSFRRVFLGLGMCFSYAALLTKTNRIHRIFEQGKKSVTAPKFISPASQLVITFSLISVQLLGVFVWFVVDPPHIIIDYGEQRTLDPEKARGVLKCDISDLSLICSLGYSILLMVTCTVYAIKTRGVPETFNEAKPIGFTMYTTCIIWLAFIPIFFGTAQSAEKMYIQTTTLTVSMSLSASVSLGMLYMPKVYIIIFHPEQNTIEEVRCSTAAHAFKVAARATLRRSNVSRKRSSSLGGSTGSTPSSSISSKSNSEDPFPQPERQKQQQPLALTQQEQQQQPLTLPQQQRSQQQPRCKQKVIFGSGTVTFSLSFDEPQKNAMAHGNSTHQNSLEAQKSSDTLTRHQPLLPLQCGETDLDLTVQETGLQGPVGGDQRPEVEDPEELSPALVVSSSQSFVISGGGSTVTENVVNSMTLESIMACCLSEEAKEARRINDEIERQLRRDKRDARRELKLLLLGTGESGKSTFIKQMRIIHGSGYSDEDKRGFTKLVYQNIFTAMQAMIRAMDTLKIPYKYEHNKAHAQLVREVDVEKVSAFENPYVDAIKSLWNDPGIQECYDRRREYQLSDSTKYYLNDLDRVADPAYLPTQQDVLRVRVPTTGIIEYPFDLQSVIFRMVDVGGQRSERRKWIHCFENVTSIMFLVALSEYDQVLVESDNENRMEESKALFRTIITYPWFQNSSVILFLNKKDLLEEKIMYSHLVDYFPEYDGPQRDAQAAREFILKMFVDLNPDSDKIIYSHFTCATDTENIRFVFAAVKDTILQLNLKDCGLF
Protocol: (§1) The different G-protein fusion receptors used in this example were as follows: mGluR2//CaR*Gqi5 (SEQ. ID. NO. 37), CaR/mGluR2*Gqi5 (SEQ. ID. NO. 33), and mGluR8//CaR*Gqi5 SEQ. ID. NO. 41.
(§2) Oocytes suitable for injection were obtained from adult female Xenopus laevis toads using procedures described in C. J. Marcus-Sekura and M. J. M. Hitchcock, Methods in Enzymology, Vol. 152 (1987).
(§3) Receptor fusion cRNAs were dissolved in water and 50 nl (12.5 ng/oocyte) were injected into individual oocytes. Following injection, oocytes were incubated at 16° C. in MBS containing 1 mM CaCl2 for two to seven days prior to electrophysiological recording.
(§4) Test substances were applied by superfusion at a flow rate of about 5 ml/minute. Receptor fusion activation was determined by measuring the increase in calcium-activated chloride current (ICl). Increases in ICl were quantified by measuring the peak inward current stimulated by activating agent, relative to the holding current at −60 mV. […] Application of 100 μM Gd^3+ activated the CaR/mGluR2*Gqi5.

mGluR2//CaR*Gαqi5 = mGluR2//CaR*Gαqi5 (Homo sapiens, UniProt Q14416, L8P); assay: as above; conditions: 100 μM, Xenopus laevis oocytes, holding −60 mV, FIG. 15
Sequence of mGluR2//CaR*Gαqi5 (Q14416 with tags, fused parts or gaps L8P): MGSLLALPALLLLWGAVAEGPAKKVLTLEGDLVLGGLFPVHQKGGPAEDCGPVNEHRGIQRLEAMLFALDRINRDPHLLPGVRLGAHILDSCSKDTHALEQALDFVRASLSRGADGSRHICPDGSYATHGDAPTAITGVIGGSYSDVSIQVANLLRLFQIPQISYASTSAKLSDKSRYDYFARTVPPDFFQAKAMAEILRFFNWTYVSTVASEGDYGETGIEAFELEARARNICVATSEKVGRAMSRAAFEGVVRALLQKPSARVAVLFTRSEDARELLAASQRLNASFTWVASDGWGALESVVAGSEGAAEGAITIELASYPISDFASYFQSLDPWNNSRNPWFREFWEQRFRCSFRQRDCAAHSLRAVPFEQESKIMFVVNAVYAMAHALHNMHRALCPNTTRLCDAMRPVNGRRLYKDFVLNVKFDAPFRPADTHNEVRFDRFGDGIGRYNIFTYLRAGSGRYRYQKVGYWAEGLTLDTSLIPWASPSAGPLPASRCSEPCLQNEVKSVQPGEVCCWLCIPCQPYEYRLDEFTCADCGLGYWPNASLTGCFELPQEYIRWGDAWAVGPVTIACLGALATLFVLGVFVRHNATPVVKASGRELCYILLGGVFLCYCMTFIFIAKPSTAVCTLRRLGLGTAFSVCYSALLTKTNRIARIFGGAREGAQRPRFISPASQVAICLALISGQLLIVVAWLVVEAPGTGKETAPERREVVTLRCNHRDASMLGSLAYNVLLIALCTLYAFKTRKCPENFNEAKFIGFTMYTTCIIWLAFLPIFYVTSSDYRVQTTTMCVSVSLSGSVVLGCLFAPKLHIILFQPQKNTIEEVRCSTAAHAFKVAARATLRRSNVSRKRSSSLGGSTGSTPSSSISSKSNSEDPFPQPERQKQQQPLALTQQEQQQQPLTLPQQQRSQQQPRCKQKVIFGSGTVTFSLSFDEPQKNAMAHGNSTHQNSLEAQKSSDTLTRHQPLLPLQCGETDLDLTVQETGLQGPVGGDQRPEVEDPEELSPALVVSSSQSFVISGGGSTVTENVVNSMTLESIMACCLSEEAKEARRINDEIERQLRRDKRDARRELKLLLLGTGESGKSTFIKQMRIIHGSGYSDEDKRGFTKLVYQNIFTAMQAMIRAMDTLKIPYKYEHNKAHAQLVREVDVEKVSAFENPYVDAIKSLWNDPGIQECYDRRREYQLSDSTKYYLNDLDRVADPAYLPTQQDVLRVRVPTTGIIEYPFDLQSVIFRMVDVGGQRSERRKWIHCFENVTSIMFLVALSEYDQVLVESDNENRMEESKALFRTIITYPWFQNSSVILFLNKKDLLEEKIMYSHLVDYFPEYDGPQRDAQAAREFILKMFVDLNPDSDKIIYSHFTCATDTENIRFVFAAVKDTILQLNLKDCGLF

[1] = biological target: T2, chimeric CaR/GABABR2 (CaR extracellular and transmembrane domains, and intracellular GABABR2 domain) (Homo sapiens, UniProt O75899+P41180); assay: Calcium-activated chloride current in Xenopus oocytes co-injected with chimeric CaR/GABABR2 RNA and Gα15 RNA; conditions: 100 μM, voltage-clamped, 72-hour incubation, FIG. 8
T2 construct: chimeric CaR/GABABR2 (CaR extracellular and transmembrane domains, and intracellular GABABR2 domain); GABABR2 intracellular domain (fusion partner replacing the CaR tail); expressed in transfected cells; host or cells: Xenopus oocytes injected with in vitro-transcribed RNA
T2 sequence (P41180+O75899 with tags, fused parts or gaps): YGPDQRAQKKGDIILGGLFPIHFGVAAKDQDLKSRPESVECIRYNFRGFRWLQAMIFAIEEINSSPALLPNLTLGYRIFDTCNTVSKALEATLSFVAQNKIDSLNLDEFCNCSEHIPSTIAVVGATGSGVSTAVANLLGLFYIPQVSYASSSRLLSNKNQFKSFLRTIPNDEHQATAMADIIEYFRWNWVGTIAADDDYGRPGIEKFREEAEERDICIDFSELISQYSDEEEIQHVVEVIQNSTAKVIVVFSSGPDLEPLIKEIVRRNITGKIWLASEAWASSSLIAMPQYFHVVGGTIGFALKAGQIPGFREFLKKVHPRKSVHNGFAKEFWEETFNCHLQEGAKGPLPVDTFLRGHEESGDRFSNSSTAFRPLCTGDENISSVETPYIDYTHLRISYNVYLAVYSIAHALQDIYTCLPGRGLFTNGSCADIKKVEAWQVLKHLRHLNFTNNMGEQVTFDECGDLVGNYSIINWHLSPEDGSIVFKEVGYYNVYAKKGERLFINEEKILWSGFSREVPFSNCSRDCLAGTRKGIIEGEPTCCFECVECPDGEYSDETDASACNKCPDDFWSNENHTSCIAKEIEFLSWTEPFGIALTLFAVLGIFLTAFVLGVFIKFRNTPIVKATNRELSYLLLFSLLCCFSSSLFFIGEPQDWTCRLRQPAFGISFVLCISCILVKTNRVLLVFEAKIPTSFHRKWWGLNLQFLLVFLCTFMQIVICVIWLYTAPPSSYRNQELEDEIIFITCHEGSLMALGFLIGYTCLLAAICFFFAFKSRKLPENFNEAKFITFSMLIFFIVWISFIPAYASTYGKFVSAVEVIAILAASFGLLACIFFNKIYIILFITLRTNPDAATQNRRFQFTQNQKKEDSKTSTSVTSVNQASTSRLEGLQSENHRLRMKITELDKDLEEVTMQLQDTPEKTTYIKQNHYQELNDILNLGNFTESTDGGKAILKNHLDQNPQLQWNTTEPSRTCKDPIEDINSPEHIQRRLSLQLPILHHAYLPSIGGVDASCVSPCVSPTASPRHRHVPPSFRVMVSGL
Protocol: FIG. 8 illustrates the ability of a chimeric CaR/GABABR2 (CaR extracellular and transmembrane domains, and intracellular GABABR2 domain) to transduce a signal. Signal production was measured by detecting an increase in the calcium-activated chloride current. The line in the middle of the increase signifies a wash step.
In vitro-transcribed RNA (7 ng) encoding a chimeric CaR/GABABR2 (CaR extracellular and transmembrane domains, and intracellular GABABR2 domain) was co-injected with in vitro-transcribed RNA (2 ng) encoding Gα15 into Xenopus oocytes. Following a 72-hour incubation, the oocytes were voltage-clamped using standard electrophysiological techniques (B. Hille, Ionic Channels of Exictable Membranes, pp. 30-33, Sinauer Associates, Inc., Sunderland, Ma., 1992). Activation of the chimeric receptor was detected by increases in the calcium-activated chloride current.
In this assay, the Gα15 subunit acts to promote signal transduction through intracellular pathways that mobilize intracellular Ca^++.

CaR/mGluR2*Gqi5 = biological target: T3, CaR/mGluR2*Gqi5 (Homo sapiens, UniProt P41180); assay: Calcium-activated chloride current in Xenopus oocytes injected with G-protein fusion receptor cRNA; conditions: 100 μM, Xenopus laevis oocytes, holding −60 mV, FIG. 15
T3 construct: expressed in transfected cells; host or cells: Xenopus laevis oocytes injected with fusion receptor cRNA
T3 sequence (P41180 with tags, fused parts or gaps): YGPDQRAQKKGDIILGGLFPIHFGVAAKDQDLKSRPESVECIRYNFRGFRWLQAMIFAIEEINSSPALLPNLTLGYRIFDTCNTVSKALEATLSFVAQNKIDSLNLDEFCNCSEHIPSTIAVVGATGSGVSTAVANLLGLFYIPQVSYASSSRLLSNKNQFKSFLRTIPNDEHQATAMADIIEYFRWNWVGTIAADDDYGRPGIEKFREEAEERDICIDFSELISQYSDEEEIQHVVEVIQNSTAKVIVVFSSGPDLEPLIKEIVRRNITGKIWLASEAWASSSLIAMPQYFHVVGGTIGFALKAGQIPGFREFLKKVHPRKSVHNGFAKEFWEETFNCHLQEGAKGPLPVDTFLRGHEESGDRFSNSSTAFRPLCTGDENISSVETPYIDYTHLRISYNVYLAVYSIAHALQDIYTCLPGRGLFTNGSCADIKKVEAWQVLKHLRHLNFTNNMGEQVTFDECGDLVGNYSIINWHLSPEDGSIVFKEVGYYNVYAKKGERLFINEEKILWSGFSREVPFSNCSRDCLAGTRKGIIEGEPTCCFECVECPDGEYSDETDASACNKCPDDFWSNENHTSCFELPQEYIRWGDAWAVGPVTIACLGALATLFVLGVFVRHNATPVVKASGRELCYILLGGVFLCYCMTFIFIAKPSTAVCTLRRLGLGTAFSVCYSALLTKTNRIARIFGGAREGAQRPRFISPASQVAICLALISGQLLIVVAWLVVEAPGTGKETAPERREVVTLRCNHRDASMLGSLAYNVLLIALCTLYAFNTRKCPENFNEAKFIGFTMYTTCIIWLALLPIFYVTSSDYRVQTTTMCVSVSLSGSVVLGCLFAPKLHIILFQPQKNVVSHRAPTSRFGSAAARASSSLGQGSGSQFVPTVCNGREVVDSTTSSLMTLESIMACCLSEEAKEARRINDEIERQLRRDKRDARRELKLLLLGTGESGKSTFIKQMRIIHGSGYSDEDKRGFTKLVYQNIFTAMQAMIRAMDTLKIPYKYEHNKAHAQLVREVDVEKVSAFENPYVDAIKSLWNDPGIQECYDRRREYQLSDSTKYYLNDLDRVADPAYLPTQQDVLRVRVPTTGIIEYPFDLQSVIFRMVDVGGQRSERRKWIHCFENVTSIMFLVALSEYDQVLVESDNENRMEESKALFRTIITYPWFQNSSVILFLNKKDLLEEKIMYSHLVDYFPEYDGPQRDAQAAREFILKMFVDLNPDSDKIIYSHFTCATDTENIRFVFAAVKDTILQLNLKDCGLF
Protocol: as §1, §2, §3, §4

Row | receptor fusion activation, increase in calcium-activated chloride current (ICl) (CaR/mGluR2*Gqi5) | Structure (SMILES) | receptor fusion activation, increase in calcium-activated chloride current (ICl) (mGluR8//CaR*Gαqi5) | receptor fusion activation, increase in calcium-activated chloride current (ICl) (mGluR2//CaR*Gαqi5) | activation of the chimeric receptor detected by increases in the calcium-activated chloride current [1]
1 |  | N[C@@H](CCC(=O)O)C(=O)O [L-glutamate] | elicited a response | elicited a response | 
2 | activated | [Gd+3] [Gd^3+] |  |  | reversible, oscillatory increases in the calcium-activated chloride current
